Results: patent US9622429B2, “Method for increasing plant biomass” (BioMass Booster, S.L., priority 2010, dated 2017)

Key:
Assay type in all cases: cell-based
[1] = test system: Carrot (Daucus carota) calli; experiment: Callus growth (biomass increase) on medium containing adrenomedullin, carrot
Excerpt: (§1) Carrot (Daucus carota) and tobacco (Nicotiana tabacum) calli were supplied by Carolina Biological Supply Company (Burlington, N.C., USA) and kept under sterile conditions in solid callus initiation medium for carrots or for tobacco respectively (also acquired from Carolina Biological). The specific composition thereof is available in the company's catalog. A single callus was split into small fragments and these fragments were weighed under sterile conditions and seeded on fresh medium (solid callus initiation medium acquired from Carolina Biologicals) which contained different concentrations of the synthetic peptide human adrenomedullin (AM) (Phoenix Pharmaceuticals, Burlingame, Calif., USA). After 30 days of growth in the dark, the calli were weighed again and the growth rate was calculated as the quotient of the final weight divided by the initial weight. The dry weight of each sample was calculated by subjecting the calli to an oven drying process at […] for 24 hours.

[2] = test system: tobacco (Nicotiana tabacum) calli; experiment: Callus growth (biomass increase) on medium containing adrenomedullin, tobacco
Excerpt: as §1

Chlorella = experiment: Microalgae growth in culture, absorbance at 680 nm; conditions: final concentration of 10^−8 M AM, Guillard F/2 medium, 5% CO2, 12 hours light/12 hours dark
Description: Two identical cultures of Chlorella in Guillard F/2 medium [Guillard, R. R. L. 1975. Culture of phytoplankton for feeding marine invertebrates. pp 26-60. In Smith W. L. and Chanley M. H (Eds.) Culture of Marine Invertebrate Animals. Plenum Press, New York, USA.; Guillard, R. R. L. and Ryther, J. H. 1962. Studies of marine planktonic diatoms. I. Cyclotella nana Hustedt and Detonula confervacea Cleve. Can. J. Microbiol. 8: 229-239] (250 ml each) were prepared in two separate glass flasks. Then, 100 μl of said Guillard F/2 medium were added to a flask and 100 μl of said Guillard F/2 medium containing the synthetic peptide human adrenomedullin (AM) (Phoenix Pharmaceuticals, Burlingame, Calif., USA) in a sufficient amount to achieve a final concentration of 10^−8 M to the other flask.
Air containing 5% CO2 was continuously bubbled in the culture. The flasks were illuminated with a photoperiod of 12 hours light/12 hours dark.
Aliquots from the medium were periodically collected in order to assess the microalgae growth. Absorbance was measured at 680 nm with a Perkin Elmer Lambda 35 UV/Visible spectrofotometer.

[3] = different concentrations of AM, 30 days of growth in the dark
[4] = oven drying at 250° C. for 24 hours

Q: Which results are given for human adrenomedullin [AM]?
A: most effective concentration of AM for stimulating cell growth ([1]; 30 days of growth in the dark): 10^−10 M; growth of the calli (growth rate = final weight / initial weight) [1, 3]: growth increase in the calli following a dose-dependent response; increase in the biomass when compared with the control ([1]; optimal dose of AM, 30 days): 60%; dry weight of the tissue [1, 4]: differences were maintained; most effective concentration of AM for stimulating cell growth ([2]; 30 days of growth in the dark): 10^−10 M; growth of the calli (growth rate = final weight / initial weight) [2, 3]: growth increase in the calli following a dose-dependent response; increase in the biomass when compared with the control ([2]; optimal dose of AM, 30 days): 60%; dry weight of the tissue [2, 4]: differences were maintained; microalgae growth (absorbance at 680 nm) (Chlorella): grow up faster and reach the stationary phase sooner than the non-treated microalgae
